Values of other authors in patent EP2243483A1, “Amlodipine salt compositions for topical application” (priority 2009, dated 2010).
Where a name gives a salt, the structure may show the parent alone.

What was measured:
[1] = target: T1, 2B6 (Homo sapiens, UniProt P20813)
T1 sequence (P20813 1-491): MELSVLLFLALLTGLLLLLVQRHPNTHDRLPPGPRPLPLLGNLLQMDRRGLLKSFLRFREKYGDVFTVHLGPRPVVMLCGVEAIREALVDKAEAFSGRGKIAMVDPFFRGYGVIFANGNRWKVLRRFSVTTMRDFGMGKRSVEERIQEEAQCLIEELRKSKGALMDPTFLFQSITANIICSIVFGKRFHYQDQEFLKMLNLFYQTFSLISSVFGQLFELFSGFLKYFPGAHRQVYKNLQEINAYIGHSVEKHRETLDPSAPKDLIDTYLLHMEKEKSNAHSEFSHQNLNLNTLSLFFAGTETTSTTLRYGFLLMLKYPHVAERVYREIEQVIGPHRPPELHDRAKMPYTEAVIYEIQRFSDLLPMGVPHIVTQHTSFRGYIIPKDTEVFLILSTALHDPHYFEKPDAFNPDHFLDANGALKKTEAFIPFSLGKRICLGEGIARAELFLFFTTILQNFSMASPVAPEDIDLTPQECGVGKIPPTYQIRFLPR

[2] = target: T2, 2A6 (Homo sapiens, UniProt P11509)
T2 sequence (P11509 1-494): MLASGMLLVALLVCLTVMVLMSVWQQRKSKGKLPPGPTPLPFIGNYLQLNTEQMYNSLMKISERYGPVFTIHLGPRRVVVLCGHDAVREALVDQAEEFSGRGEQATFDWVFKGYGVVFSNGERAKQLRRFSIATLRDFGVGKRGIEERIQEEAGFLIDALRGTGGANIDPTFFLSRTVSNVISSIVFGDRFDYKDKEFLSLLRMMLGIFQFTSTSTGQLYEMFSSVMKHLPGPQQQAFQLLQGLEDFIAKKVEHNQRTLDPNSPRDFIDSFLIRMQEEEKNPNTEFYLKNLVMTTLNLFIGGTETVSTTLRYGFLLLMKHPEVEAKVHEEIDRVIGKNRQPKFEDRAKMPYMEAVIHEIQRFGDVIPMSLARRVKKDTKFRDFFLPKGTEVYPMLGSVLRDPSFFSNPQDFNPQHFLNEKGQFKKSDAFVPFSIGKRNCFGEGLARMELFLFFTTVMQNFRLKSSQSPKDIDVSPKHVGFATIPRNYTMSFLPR

[3] = target: 2D6 (Homo sapiens, UniProt P10635)
2D6, sequence (P10635 whole entry): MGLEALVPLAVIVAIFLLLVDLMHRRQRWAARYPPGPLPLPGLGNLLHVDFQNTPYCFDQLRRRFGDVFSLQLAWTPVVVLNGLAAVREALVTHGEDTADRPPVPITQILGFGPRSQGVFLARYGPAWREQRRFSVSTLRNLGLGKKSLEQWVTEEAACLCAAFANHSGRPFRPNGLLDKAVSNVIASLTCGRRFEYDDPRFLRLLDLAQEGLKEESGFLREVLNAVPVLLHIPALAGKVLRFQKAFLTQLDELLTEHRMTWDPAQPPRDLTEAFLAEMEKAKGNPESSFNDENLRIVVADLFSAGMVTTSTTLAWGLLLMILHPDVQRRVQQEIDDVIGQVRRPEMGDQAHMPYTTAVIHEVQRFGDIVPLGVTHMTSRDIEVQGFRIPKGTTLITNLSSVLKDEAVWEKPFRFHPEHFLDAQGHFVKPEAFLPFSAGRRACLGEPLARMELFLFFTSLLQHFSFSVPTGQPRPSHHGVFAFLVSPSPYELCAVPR

[4] = system: 2C8/9
[5] = target: 3A4 (Homo sapiens, UniProt P08684)
3A4, sequence (P08684 whole entry): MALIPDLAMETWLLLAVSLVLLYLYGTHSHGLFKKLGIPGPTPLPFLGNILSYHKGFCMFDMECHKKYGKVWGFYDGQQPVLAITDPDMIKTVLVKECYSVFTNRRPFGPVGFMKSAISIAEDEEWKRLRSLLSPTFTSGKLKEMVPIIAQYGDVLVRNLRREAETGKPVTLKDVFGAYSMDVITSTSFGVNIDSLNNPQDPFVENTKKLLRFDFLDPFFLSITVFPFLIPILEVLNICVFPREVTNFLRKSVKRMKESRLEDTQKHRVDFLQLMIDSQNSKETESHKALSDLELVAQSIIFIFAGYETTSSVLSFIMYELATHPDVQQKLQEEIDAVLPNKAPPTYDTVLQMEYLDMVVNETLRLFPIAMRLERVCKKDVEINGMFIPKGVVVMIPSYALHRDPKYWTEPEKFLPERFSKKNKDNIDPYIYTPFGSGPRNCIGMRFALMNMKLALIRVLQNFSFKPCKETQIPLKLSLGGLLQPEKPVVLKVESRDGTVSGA

[6] = target: T3, CYP 1A2 isoenzyme (Homo sapiens, UniProt P05177)
T3 sequence (P05177 1-516): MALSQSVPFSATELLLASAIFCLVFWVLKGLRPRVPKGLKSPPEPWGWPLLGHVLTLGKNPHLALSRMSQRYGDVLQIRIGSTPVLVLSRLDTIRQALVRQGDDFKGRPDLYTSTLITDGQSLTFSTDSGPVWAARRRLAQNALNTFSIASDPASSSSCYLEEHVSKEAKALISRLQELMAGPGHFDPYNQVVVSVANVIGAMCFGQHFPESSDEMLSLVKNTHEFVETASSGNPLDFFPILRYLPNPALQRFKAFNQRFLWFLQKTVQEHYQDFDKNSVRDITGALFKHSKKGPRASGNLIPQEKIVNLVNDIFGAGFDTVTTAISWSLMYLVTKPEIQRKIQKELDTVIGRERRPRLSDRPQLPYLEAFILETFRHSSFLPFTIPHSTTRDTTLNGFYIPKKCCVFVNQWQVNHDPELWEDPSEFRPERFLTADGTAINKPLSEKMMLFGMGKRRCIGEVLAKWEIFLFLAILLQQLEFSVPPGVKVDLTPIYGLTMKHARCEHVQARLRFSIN

[7] = hypertensive patients
[8] = tablets

SMILES | parent compound excreted in the urine (in vivo, po) | metabolites excreted in the urine (urine, oral) | inhibition [1] | inhibition [2] | inhibition [3] | inhibition [4] | inhibition [5] | inhibition [6] | circulating drug bound to plasma protein [7] | converted to inactive metabolites via hepatic metabolism (in vivo, po) | time of peak concentration (in vivo, po) | time required for therapeutic response, initially [8] | time required for therapeutic response, peak [8]
CCOC(=O)C1=C(COCCN)NC(C)=C(C(=O)OC)C1c1ccccc1Cl (stereo not shown) [amlodipine] | 10% | 60% | weaker inhibition | weaker inhibition | weaker inhibition | weaker inhibition | weaker inhibition | moderately inhibited |  |  |  |  | 
CCOC(=O)C1=C(COCCN)NC(C)=C(C(=O)OC)C1c1ccccc1Cl (stereo not shown) [amlodipine maleate] |  |  |  |  |  |  |  |  | Approximately 93% | About 90% | 6 to 12 h | 7 days | about 14 days
